In patent US20210253572A1, “IMIDAZO[1,2-B]PYRIDAZINES AS TRK INHIBITORS” (BenevolentAl Bio Limited, priority 2018, published 2021):

Key:
Assay type in all cases: biochemical
TrkC = target: T1, TrkC (Homo sapiens, UniProt Q16288); test: HTRF KinEASE kinase assay, recombinant Human TRK enzyme, TrkC (NTRK3); settings: NTRK3 10 nM, read-out: TrkC Enz
T1 construct: purchased Invitrogen
Procedure: (§1) A suitable assay for determining the Trk inhibition activity of a compound is detailed herein below.
(§2) To determine the IC50 of small molecule compounds for the Human TRK receptors, HTRF® KinEASE™ kinase kits from Cisbio were used. Assays were carried out in low volume, black 384-well plates.
(§3) Recombinant Human TRK enzymes (Invitrogen) were incubated in the presence or absence of the compound (11-point dose response with FAC as 10 μM) for 30 minutes at 23° C. Kinase reaction was started by addition of ATP to a mixture containing the enzyme (NTRK1-4 nM, NTRK2-1 nM, NTRK3-10 nM) and substrate (1 μM). Kinase reaction was allowed to carry on for 10 to 45 minutes at 23° C. after which it was stopped by addition of the detection mix (supplied by vendor) containing EDTA, TK-Ab-labelled with Eu^3+-cryptate (1:200 dilutions) and Streptavidin-XL665 (250 nM). Assay plates were incubated in this detection mix for 60 minutes at 23° C. The resulting TR-FRET signal, calculated as the fluorescence ratio at 665/620 nm, was read on an Envision and was proportional to the level of phosphorylation of the peptide in the presence or absence of the compound. The uniformity of the plates were assured with Z′ value [1−{3*(SDHPE+SDZPE)/(ZPE−HPE)}]. The percent (%) effect i.e. Inhibition of compound was calculated in comparison to the signal in the positive (HPE) and negative control (ZPE) wells within each assay plate. The endpoint value % Inhibition for the Standard compound was evaluated in each experiment as a quality control measure. IC50 was determined by plotting compound inhibition at respective dose in Graphpad prism5 using four parameter logistic curve fit.

TrkA = target: T2, TrkA (Homo sapiens, UniProt P04629); test: HTRF KinEASE kinase assay, recombinant Human TRK enzyme, TrkA (NTRK1); settings: NTRK1 4 nM, read-out: TrkA Enz
T2 construct: purchased Invitrogen
Procedure: as §1, §2, §3

TrkB = target: T3, TrkB (Homo sapiens, UniProt Q16620); test: HTRF KinEASE kinase assay, recombinant Human TRK enzyme, TrkB (NTRK2); settings: NTRK2 1 nM, read-out: TrkB Enz
T3 construct: purchased Invitrogen
Procedure: as §1, §2, §3

T1 sequence (Q16288 32-839): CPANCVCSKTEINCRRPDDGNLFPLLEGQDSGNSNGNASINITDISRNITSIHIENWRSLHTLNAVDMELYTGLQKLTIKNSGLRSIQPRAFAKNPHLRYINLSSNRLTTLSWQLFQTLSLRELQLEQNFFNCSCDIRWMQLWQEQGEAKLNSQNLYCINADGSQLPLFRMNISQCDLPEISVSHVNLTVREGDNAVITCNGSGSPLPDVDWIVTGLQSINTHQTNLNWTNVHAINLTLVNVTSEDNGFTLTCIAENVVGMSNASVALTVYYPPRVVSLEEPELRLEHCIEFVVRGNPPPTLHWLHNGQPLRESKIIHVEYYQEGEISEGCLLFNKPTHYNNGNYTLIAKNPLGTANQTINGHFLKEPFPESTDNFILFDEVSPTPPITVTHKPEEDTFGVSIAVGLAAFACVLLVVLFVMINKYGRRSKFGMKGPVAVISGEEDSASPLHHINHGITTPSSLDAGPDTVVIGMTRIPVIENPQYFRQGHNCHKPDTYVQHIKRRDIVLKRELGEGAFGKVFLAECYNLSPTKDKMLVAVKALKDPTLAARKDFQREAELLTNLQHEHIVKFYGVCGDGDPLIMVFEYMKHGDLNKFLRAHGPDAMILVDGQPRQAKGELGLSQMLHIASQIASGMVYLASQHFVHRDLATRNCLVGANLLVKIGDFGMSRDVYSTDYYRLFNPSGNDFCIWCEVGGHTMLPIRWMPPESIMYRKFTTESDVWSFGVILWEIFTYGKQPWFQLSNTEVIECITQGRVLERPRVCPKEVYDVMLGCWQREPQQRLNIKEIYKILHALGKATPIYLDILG
T2 sequence (P04629 33-796): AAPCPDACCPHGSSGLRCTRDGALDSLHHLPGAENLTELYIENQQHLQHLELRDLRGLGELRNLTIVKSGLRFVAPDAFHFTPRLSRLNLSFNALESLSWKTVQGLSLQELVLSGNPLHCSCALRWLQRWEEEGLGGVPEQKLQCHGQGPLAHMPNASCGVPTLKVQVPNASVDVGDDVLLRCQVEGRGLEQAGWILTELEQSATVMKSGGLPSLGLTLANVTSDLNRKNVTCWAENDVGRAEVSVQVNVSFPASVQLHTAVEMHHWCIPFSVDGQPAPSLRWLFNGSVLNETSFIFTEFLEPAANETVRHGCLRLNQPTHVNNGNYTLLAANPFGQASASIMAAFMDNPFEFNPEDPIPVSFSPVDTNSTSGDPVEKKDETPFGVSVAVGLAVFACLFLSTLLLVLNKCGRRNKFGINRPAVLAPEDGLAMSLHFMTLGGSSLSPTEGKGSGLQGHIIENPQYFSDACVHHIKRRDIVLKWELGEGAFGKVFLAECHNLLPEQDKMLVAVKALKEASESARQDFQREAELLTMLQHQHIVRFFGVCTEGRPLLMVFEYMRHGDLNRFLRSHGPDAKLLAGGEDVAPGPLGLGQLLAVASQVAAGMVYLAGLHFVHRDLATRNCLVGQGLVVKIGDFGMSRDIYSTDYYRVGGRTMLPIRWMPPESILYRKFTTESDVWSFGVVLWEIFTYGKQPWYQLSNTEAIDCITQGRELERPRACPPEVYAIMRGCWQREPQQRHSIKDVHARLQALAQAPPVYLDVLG
T3 sequence (Q16620 32-822): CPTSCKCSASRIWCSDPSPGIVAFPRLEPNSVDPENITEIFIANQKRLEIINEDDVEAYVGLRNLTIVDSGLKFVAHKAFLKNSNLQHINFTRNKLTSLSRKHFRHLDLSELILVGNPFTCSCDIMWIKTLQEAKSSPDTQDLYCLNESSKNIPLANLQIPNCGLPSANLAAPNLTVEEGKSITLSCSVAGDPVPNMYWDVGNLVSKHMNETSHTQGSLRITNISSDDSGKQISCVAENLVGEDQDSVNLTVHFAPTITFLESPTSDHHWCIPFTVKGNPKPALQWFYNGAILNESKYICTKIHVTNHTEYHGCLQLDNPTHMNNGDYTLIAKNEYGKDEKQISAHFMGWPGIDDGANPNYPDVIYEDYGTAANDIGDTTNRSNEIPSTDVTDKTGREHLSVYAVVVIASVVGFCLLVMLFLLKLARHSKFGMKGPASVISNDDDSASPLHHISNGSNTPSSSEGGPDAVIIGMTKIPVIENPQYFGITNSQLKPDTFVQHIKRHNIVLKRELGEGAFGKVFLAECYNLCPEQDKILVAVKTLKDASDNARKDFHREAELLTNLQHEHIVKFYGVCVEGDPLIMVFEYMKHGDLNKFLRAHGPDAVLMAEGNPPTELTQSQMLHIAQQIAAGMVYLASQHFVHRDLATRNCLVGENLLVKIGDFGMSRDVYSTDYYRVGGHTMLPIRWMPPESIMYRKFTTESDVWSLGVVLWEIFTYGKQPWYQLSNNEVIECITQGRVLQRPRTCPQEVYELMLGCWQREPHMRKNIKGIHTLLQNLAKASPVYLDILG

IC50 (TrkC) [nM]	IC50 (TrkA) [nM]	IC50 (TrkB) [nM]	SMILES
17.3	6.9	23.6	CSc1cc(F)cc([C@H]2C[C@H](F)CN2c2ccc3ncc(C(=O)N[C@@H]4COCCN(Cc5ccc(F)c(O)c5)C4)n3n2)c1 (single isomer, unassigned) [Example 24]
8.72	6.1	11.4	CSc1cc(F)cc([C@H]2C[C@H](F)CN2c2ccc3ncc(C(=O)N[C@H]4COCCN(Cc5ccc(F)c(O)c5)C4)n3n2)c1 (single isomer, unassigned) [Example 25]
2.81	1.77	2.06	CSc1ccc(F)cc1[C@H]1CCCN1c1ccc2ncc(C(=O)NC3CN(Cc4ccc(F)c(O)c4)C3)n2n1 [Example 1, 6-[(2R)-2-[5-fluoro-2-(methylsulfanyl)phenyl]pyrrolidin-1-yl]-N-{1-[(4-fluoro-3-hydroxyphenyl)methyl]azetidin-3-yl}imidazo[1,2-b]pyridazine-3-carboxamide]
3.36	1.78	3.33	CSc1ccc(F)cc1[C@H]1CCCN1c1ccc2ncc(C(=O)N[C@H]3CCN(Cc4ccc(F)c(O)c4)C3)n2n1 [Example 2, 6-[(2R)-2-[5-fluoro-2-(methylsulfanyl)phenyl]pyrrolidin-1-yl]-N-[(3S)-1-[(4-fluoro-3-hydroxyphenyl)methyl]pyrrolidin-3-yl]imidazo[1,2-b]pyridazine-3-carboxamide]
1.19	0.92	0.79	CSc1ccc(F)cc1[C@H]1C[C@H](F)CN1c1ccc2ncc(C(=O)NC3CCN(Cc4cccc(O)c4)CC3)n2n1 [Example 3, 6-[(2R,4S)-4-fluoro-2-[5-fluoro-2-(methylsulfanyl)phenyl]pyrrolidin-1-yl]-N-{1-[(3-hydroxyphenyl)methyl]piperidin-4-yl}imidazo[1,2-b]pyridazine-3-carboxamide]
1.93	1.75	1.05	CSc1ccc(F)cc1[C@H]1C[C@H](F)CN1c1ccc2ncc(C(=O)NC3CN(Cc4ccc(F)c(O)c4)C3)n2n1 [Example 4, 6-[(2R,4S)-4-fluoro-2-[5-fluoro-2-(methylsulfanyl)phenyl]pyrrolidin-1-yl]-N-{1-[(4-fluoro-3-hydroxyphenyl)methyl]azetidin-3-yl}imidazo[1,2-b]pyridazine-3-carboxamide]
2.11	1.9	1.19	CSc1ccc(F)cc1[C@H]1C[C@H](F)CN1c1ccc2ncc(C(=O)NC3CN(Cc4cccc(O)c4)C3)n2n1 [Example 5, 6-[(2R,4S)-4-fluoro-2-[5-fluoro-2-(methylsulfanyl)phenyl]pyrrolidin-1-yl]-N-{1-[(3-hydroxyphenyl)methyl]azetidin-3-yl}imidazo[1,2-b]pyridazine-3-carboxamide]
1.56	1.47	0.81	CSc1ccc(F)cc1[C@H]1C[C@H](F)CN1c1ccc2ncc(C(=O)NC3CCN(Cc4ccc(F)c(O)c4)CC3)n2n1 [Example 6, 6-[(2R,4S)-4-fluoro-2-[5-fluoro-2-(methylsulfanyl)phenyl]pyrrolidin-1-yl]-N-{1-[(4-fluoro-3-hydroxyphenyl)methyl]piperidin-4-yl}imidazo[1,2-b]pyridazine-3-carboxamide]
1.25	0.9	0.49	CSc1ccc(F)cc1[C@H]1C[C@H](F)CN1c1ccc2ncc(C(=O)NCc3cccc(O)c3)n2n1 [Example 7, 6-[(2R,4S)-4-fluoro-2-[5-fluoro-2-(methylsulfanyl)phenyl]pyrrolidin-1-yl]-N-[(3-hydroxyphenyl)methyl]imidazo[1,2-b]pyridazine-3-carboxamide]
1.64	0.79	1.51	CSc1ccc(F)cc1[C@H]1C[C@H](F)CN1c1ccc2ncc(C(=O)N[C@H]3CCN(Cc4cccc(O)c4)C3)n2n1 [Example 8, 6-[(2R,4S)-4-fluoro-2-[5-fluoro-2-(methylsulfanyl)phenyl]pyrrolidin-1-yl]-N-[(3S)-1-[(3-hydroxyphenyl)methyl]pyrrolidin-3-yl]imidazo[1,2-b]pyridazine-3-carboxamide]
8.43	3.81	8.76	CCCCC(=O)Oc1cccc(CN2CC[C@H](NC(=O)c3cnc4ccc(N5C[C@@H](F)C[C@@H]5c5cc(F)ccc5SC)nn34)C2)c1 [Example 9, 3-{[(3S)-3-{6-[(2R,4S)-4-fluoro-2-[5-fluoro-2-(methylsulfanyl)phenyl]pyrrolidin-1-yl]imidazo[1,2-b]pyridazine-3-amido}pyrrolidin-1-yl]methyl}phenyl Pentanoate]
2.12	1.18	2.15	COC(=O)c1cccc(CN2CC[C@H](NC(=O)c3cnc4ccc(N5C[C@@H](F)C[C@@H]5c5cc(F)ccc5SC)nn34)C2)c1 [Example 10, Methyl 3-{[(3S)-3-{6-[(2R,4S)-4-fluoro-2-[5-fluoro-2-(methylsulfanyl)phenyl]pyrrolidin-1-yl]imidazo[1,2-b]pyridazine-3-amido}pyrrolidin-1-yl]methyl}benzoate]
2.46	1.57	2.27	CSc1ccc(F)cc1[C@H]1C[C@H](F)CN1c1ccc2ncc(C(=O)N[C@H]3CCN(Cc4ccc(F)c(O)c4)C3)n2n1 [Example 11, 6-[(2R,4S)-4-fluoro-2-[5-fluoro-2-(methylsulfanyl)phenyl]pyrrolidin-1-yl]-N-[(3S)-1-[(4-fluoro-3-hydroxyphenyl)methyl]pyrrolidin-3-yl]imidazo[1,2-b]pyridazine-3-carboxamide]
10.9	3.82	10.3	CCCCOC(=O)c1cccc(CN2CC[C@H](NC(=O)c3cnc4ccc(N5C[C@@H](F)C[C@@H]5c5cc(F)ccc5SC)nn34)C2)c1 [Example 12, Butyl 3-{[(3S)-3-{6-[(2R,4S)-4-fluoro-2-[5-fluoro-2-(methylsulfanyl)phenyl]pyrrolidin-1-yl]imidazo[1,2-b]pyridazine-3-amido}pyrrolidin-1-yl]methyl}benzoate]
2.01	1.7	2.53	CCOC(=O)c1cccc(CN2CC[C@H](NC(=O)c3cnc4ccc(N5C[C@@H](F)C[C@@H]5c5cc(F)ccc5SC)nn34)C2)c1 [Example 13, Ethyl 3-{[(3S)-3-{6-[(2R,4S)-4-fluoro-2-[5-fluoro-2-(methylsulfanyl)phenyl]pyrrolidin-1-yl]imidazo[1,2-b]pyridazine-3-amido}pyrrolidin-1-yl]methyl}benzoate]
1.47	0.95	0.57	CSc1ccc(F)cc1[C@H]1C[C@H](F)CN1c1ccc2ncc(C(=O)NCc3ccc(F)c(O)c3)n2n1 [Example 14, 6-[(2R,4S)-4-fluoro-2-[5-fluoro-2-(methylsulfanyl)phenyl]pyrrolidin-1-yl]-N-[(4-fluoro-3-hydroxyphenyl)methyl]imidazo[1,2-b]pyridazine-3-carboxamide]
8.3	4.86	9.15	CSc1cc(F)cc([C@H]2CCCN2c2ccc3ncc(C(=O)N[C@H]4CCN(Cc5ccc(F)c(O)c5)C4)n3n2)c1 [Example 15, N-[(3S)-1-[(4-fluoro-3-hydroxyphenyl)methyl]pyrrolidin-3-yl]-6-[(2R)-2-[3-fluoro-5-(methylsulfanyl)phenyl]pyrrolidin-1-yl]imidazo[1,2-b]pyridazine-3-carboxamide]
